Where two headings read alike, the source gives them in different places.
Legend:
AH-130 = assay: Anti-cancer effect (T/C) on subcutaneously transplanted AH-130, oral administration (Table 2); type: in vivo, male Donryu rats
Description: (2) Determination of effects
Ascites cells (5×10^6) of AH-130, are subcutaneously transplanted in the armpit of male Donryu rats weighing about 200 g (ten rats in each group). […] Twenty-four hours after the transplantation and during the following seven consecutive days the suspension is orally given to the animal once every day at the dose listed in Table 2. On the 10th day after the transplantation, the tumor is removed from the body and weighed to calculate the average weight (T) of the tumors in the group to which the composition has been given and the corresponding weight (C) in the control group to determine the ratio T/C.

sarcoma 180 [1] = assay: Therapeutic effect on sarcoma 180 transplanted in mice (Table 5); type: in vivo, male mice of ICR strain; settings: oral, 14400 min
Experimental: (§1) (5) The anti-cancer compositions of this invention are tested in mice by the following methods to determine acute toxicity, therapeutic effect and theapeutic index.
Tissues of sarcoma 180, 2×10^6, are subcutaneously transplanted in the back of male mice of ICR strain (6 mice in each group). […] Twenty-four hours after the transplantation and during the following seven consecutive days the suspension is orally given to the animal once every day.

in vivo = type: in vivo; settings: mouse, in vivo, po, mice
Experimental: as §1
Male mice of ICR strain weighing 22±1 g are used, 5 mice in each group. […] Over the following period of three weeks the mice are checked every day for poisoning, body weight and mortality. The LD50 is determined according to the up-and-down method 3 weeks after the administration.

sarcoma 180 [2] = assay: Therapeutic index (LD50/ED50) in mice (Table 5); type: in vivo, male mice of ICR strain; settings: oral
Description: The LD50 and ED50 values obtained above are used to determine the therapeutic index (LD50 /ED50).

[3] = Rattus norvegicus, po, 240 h; read-out: Anti-cancer effect (T/C)
[4] = oral, 5-fluorouracil (a) 0.5 m.mol/kg + uracil 0.5 m.mol/kg
[5] = uracil (b)/(a) mol ratio 0, as amount of 5-fluorouracil (a)
[6] = uracil (b)/(a) mol ratio 2.5, as amount of 5-fluorouracil (a)
[7] = uracil (b)/(a) mol ratio 10, as amount of 5-fluorouracil (a)

Row | SMILES | response vs control in vivo at 500 µmol/kg (AH-130; [3]) | Anti-cancer effect (T/C) (AH-130; oral, 5-fluorouracil (a) 0.5 m.mol/kg + uracil 0.1 m.mol/kg) | Anti-cancer effect (T/C) (AH-130; [4]) | ED50 (sarcoma 180 [1]; [5]) | ED50 (sarcoma 180 [1]; [6]) | ED50 (sarcoma 180 [1]; [7]) | LD50 at 504 h (in vivo; [5]) | LD50 at 504 h (in vivo; [6]) | LD50 at 504 h (in vivo; [7]) | Therapeutic index (LD50/ED50) (sarcoma 180 [2]; uracil (b)/(a) mol ratio 0) | Therapeutic index (LD50/ED50) (sarcoma 180 [2]; uracil (b)/(a) mol ratio 2.5) | Therapeutic index (LD50/ED50) (sarcoma 180 [2]; uracil (b)/(a) mol ratio 10) | response vs control in vivo at 500 µmol/kg (AH-130; Rattus norvegicus, po, 240 h, read-out: Anti-cancer effect (T/C)) | effect (T/C) (AH-130; oral, uracil (b) alone 1 m.mol/kg) | anti-cancer effect of uracil itself (AH-130; uracil (b) itself)
1 | O=c1[nH]c(=O)n(S(=O)(=O)c2ccccc2)cc1F [Compound 8, 1-Benzenesulfonyl-5-fluorouracil] | 48% | 0.39 | 0.21 | 234 mg/kg | 88 mg/kg | 48 mg/kg | 1170 mg/kg | 973 mg/kg | 427 mg/kg |  |  |  |  |  | 
2 | CCOC(=O)n1cc(F)c(=O)[nH]c1=O [Compound 9, 1-Ethoxycarbonyl-5-fluorouracil] |  |  | 0.06 | 101 mg/kg | 39 mg/kg | 28 mg/kg | 332 mg/kg | 269 mg/kg | 179 mg/kg | 3.3 | 6.9 | 6.4 | 22% |  | 
3 | CCCC(=O)n1cc(F)c(=O)[nH]c1=O [Compound 10, 1-(n-Butyryl)-5-fluorouracil] | 38% |  | 0.11 | 111 mg/kg | 37 mg/kg | 28 mg/kg |  |  |  |  |  |  |  |  | 
4 | CCCCn1cc(F)c(=O)[nH]c1=O [Compound 11, 1-(n-Butyl)-5-fluorouracil] | 77% |  | 0.53 | 186 mg/kg | 88 mg/kg | 49 mg/kg | 867 mg/kg | 723 mg/kg | 358 mg/kg | 4.7 | 8.2 | 7.3 |  |  | 
5 | Fc1cnc(OCc2ccccc2)nc1OCc1ccccc1 [Compound 12, 2,4-Dibenzyl-5-fluorouracil] | 55% |  | 0.41 | 362 mg/kg | 224 mg/kg | 163 mg/kg |  |  |  |  |  |  |  |  | 
6 | O=c1cc[nH]c(=O)[nH]1 [uracil (b), uracil] |  |  |  |  |  |  |  |  |  |  |  |  |  | 0.96 | no anti-cancer effect whatever

Source: patent publication US4481203A, “Composition containing 1-(n-hexylcarbamoyl)-5-fluorouracil and uracil” (priority 1977, dated 1984)
